Source: US20230113802A1, “COMPOSITION AND METHOD TO PREPARE LONG-ACTING INJECTABLE SUSPENSION CONTAINING MULTIPLE CANCER DRUGS” (University of Washington, priority 2020, published 2023)
“And” between values parts separate entries of the source, which are not always exact repeats. Equal entries are not always repeated. Where two headings read alike, the source gives them in different places. Marks after values point to notes of the source that are not given here.

What was measured:
[1] = Estimating the maximum dissociated fraction of G and T in vivo (Eq. 1, Eq. 2); design: species or system BALB/c mice; settings: for maximum dissociated fraction (fdiss. max), Eq. 1: from plasma AUCs of DcNP and CrEL
Description: To estimate a maximum dissociated fraction (fdiss. max) of GT from DcNPs in vivo, a non-compartmental approach based on the plasma AUCs of equi-molar injections of DcNP and CrEL formulations was first utilized: […]
In Eq. 1, it is assumed that systemic clearance of G or T administered as DcNPs only occurs after drug dissociates from the particles, and dissociated drug has the same clearance pathways as the free drug control (CrEL). This non compartmental approach also assumes that drug clearance occurs solely in the central compartment. For the two drugs of interest, T is mainly metabolized in the liver by CYP3A4 and CYP2C8 but G is metabolized by ubiquitous cytidine deaminase (CDA). To understand the impact of the ubiquitous metabolism of G on its pharmacokinetic profile, the plasma concentration of the primary metabolite of G, dFdU, was used as a biomarker for dissociated drug. […] The equation below then provides an estimate of the fraction of the G dose metabolized to dFdU. If the calculated fraction metabolized (fdiss.G→dFdU) from Eq. 2 equals the fdiss. max from Eq. 1, it can be surmised that once G is released from DcNPs at all locations in the body it exchanges readily with the circulating G and subsequently undergoes metabolism (i.e., metabolism of all dissociated drug occurs in the central compartment). However, if some or all of the drug released from DcNPs in peripheral tissue is immediately metabolized to dFdU without exchanging with G in circulation, the fdiss.G→dFdU estimates from Eq. 2 would be expected to exceed the fdiss. max from Eq. 1 (i.e., dissociated drug is metabolized in both the central and peripheral compartments).
G AUC0→∞,CrEL is the plasma AUC of G given in free drug form. G AUC0→∞,DcNP is the total AUCs of associated and dissociated G given in DcNP form. dFdU AUC0→∞, CrEL is the AUC of dFdU formed after administration of free G. dFdU AUC0→∞,DcNP is the AUC of dFdU after dosing G in DcNP, which reflects the amount of dissociated G released from DcNPs and available for metabolic conversion. fdiss.G→dFdU represents the fraction of DcNP-dose that is released as free drug and available for conversion to dFdU by CDA.
The assumptions underlying Eq. 2 are as follows: [1] Dissociated (free) G, but not associated G, is readily available for metabolism by CDA. Dissociated G is rapidly and extensively metabolized to dFdU by CDA. […] A detailed pharmacokinetic model for the associated and dissociated species will be presented next to simulate the in vivo association of both drugs.

[2] = Pharmacokinetic study of GT DcNP vs CrEL drug combination in mice (Example 1); assay type: in vivo, BALB/c mice; settings: GT 50/5 mg/kg IV; for AUC(0-t) / Cmax / t1/2apparent: plasma; for AUC(0-t): iv
Procedure: Mice were administered with either a CrEL drug combination or GT DcNP intravenously with doses of 50/5 mg/kg GT. […] Each group had three animals and each animal was bled once only. Retro-orbital blood collection in this study was a terminal procedure and animals were under anesthesia at the time of bleeding. After blood collection, mice were euthanized by CO2 overdose followed by cervical dislocation as the secondary method of euthanasia. Drugs in plasma were extracted and analyzed by LC-MS/MS as described below.
A liquid-liquid extraction was used to extract drugs from plasma or tissue homogenates. […] Samples were spiked by internal standards (see below) followed by the addition of acetonitrile. […] The dried samples were reconstituted in 20% methanol and 80% water in 50 μL.
Drugs were quantified by a Shimadzu HPLC system coupled to a 3200 QTRAP mass spectrometer (Applied Biosystems, Grand Island, N.Y.). The HPLC system consisted of two Shimadzu LC-20A pumps, a DGU-20A5 degasser, and a Shimadzu SIL-20AC HT autosampler. The mass spectrometer was equipped with an electrospray ionization (ESI) TurbolonSpray source. The system was operated with Analyst software, version 1.5.2 (ABSciex, Framingham, Mass.).
Chromatographic separation of drugs was achieved using a Synergi column (100×2.0 mm; 4-μm particle size) with an inline C8 guard column (4.0×2.0 mm) (Phenomenex, Torrance, Calif.). An ammonium acetate buffer/reagent alcohol gradient was used to separate components. Analytes were monitored using multiple-reaction monitoring for positive ions.

MOLT-4 cells = experiment: AlamarBlue cell growth inhibition, MOLT-4; assay type: cell-based; settings: Homo sapiens, 120 h; for IC50: MOLT-4, five days, read-out: IC50 (sensitivity); for EC50: Molt-4 (Bcl-2 +, BTK −), 5 days, read-out: Inhibitory effects (EC50)
Procedure: (§1) K-562 cells (human leukemia) were purchased from ATCC (Manassas, USA). Additional human leukemic cell lines, MOLT-4 and HL-60, were a generous gift from Carrie Cummings at Fred Hutchinson Cancer Research Center (Seattle, USA). All cells were cultured in Gibco RPMI medium 1640 with Gibco 1% 100×Antibiotic-Antimycotic (Thermo Fisher Scientific, Waltham, USA) and 10% fetal bovine serum. Cells were selected for their different protein expression levels of Bruton's Tyrosine Kinase (BTK) and B Cell Lymphoma 2 (Bcl-2); HL-60 cells express both BTK and Bcl-2, while K-562 and MOLT-4 cells only express BTK and Bcl-2, respectively.
(§2) Each cell line was seeded separately into Costar® Black 96-well Assay Plates (Corning USA). Within 1 hr, varying concentrations of individual free drug (ABT-199 or BGB-3111), a combination of both free drugs (w/w 1:1), or a combination of drugs within DcNP's were added to the cells. Following a 5-day incubation, growth of treated cells was compared to untreated cells, quantified using an AlamarBlue Cell Viability Assay (Thermo Fisher Scientific, Waltham, USA) with a PerkinElmer 1420 Multilabel Counter plate reader. Prism graphing software (GraphPad) was used to analyze the absorbance data and to assess relative cell growth.
(§3) The effects of DcNP formulation on the effectiveness of ABT-199 and BGB-3111 to inhibit cells that express Bcl-2 and BTK targets is shown in Table 6. Three immortalized human cell lines were selected based on their expression of Bcl-2 (B-cell lymphoma 2; target of venetoclax) and BTK (Bruton's tyrosine kinase; target of zanubrutinib). Cell lines were seeded in 96-well plates at 75,000 cells per well. In separate sets of wells, venetoclax and zanubrutinib were incubated with the cells for 5 days individually as free drug, together as free drug, and together as the drug combination nanoformulation. An AlamarBlue assay was performed to determine relative inhibition of cell growth due to drug presence.

HL-60 cells = experiment: AlamarBlue cell growth inhibition, HL-60; assay type: cell-based; settings: Homo sapiens; for IC50: 120 h, HL-60, five days; for EC50: HL-60, 120 h, HL60 (Bcl-2 +, BTK +), 5 days, read-out: Inhibitory effects (EC50)
Procedure: as §1, §2, §3

[3] = female, BALB/c, mouse, given in CrEL drug dosage form
[4] = female, BALB/c, mouse, given in DcNP dosage form

IC50 (MOLT-4 cells) [µg/mL] | EC50 (MOLT-4 cells) [µg/mL] | IC50 (HL-60 cells; read-out: IC50) [µg/mL] | EC50 (HL-60 cells) [µg/mL] | IC50 (HL-60 cells; read-out: IC50 (sensitivity)) [µg/mL] | Compound | fraction of dissociated G accessible for metabolism (fdiss.G→dFdU), Eq. 2 ([1]; GT DcNP IV) [%] | in vivo association to DcNPs per Eq. 1 ([1]; GT DcNP IV) [%] | maximum dissociated fraction (fdiss. max), Eq. 1 ([1]; GT DcNP IV) [%] | G in DcNP dosage form not accessible for dFdU conversion / remaining associated to DcNPs in vivo ([1]; after IV GT-DcNP administration, listed as G) | increase in Cmax, GT DcNP compared to CrEL [2] [%] | AUC(0-t) [2, 3] [ng·h/mL] | AUC(0-t) [2, 4] [ng·h/mL] | Cmax ([2]; given in CrEL drug dosage form) | t1/2apparent ([2]; given in CrEL drug dosage form) [h] | Cmax ([2]; given in DcNP dosage form) [µg/mL] | t1/2apparent ([2]; given in DcNP dosage form) [h] | decrease in Cmax, GT DcNP compared to CrEL [2] [%] | Cmax ([2]; female, BALB/c, mouse, given in CrEL drug dosage form, read-out: Cmax) [µg/mL]
 |  |  |  |  | Nc1ccn([C@@H]2O[C@H](CO)[C@@H](O)C2(F)F)c(=O)n1 [Gemcitabine, 4-amino-1-[(2R,4R,5R)-3,3-difluoro-4-hydroxy-5-(hydroxymethyl)oxolan-2-yl]pyrimidin-2-one] | 8 | > 98 | 1.6 | 92% and > 92% | ~10 | 15300 | 868000 | 165.12^b μg/mL | 1.60 | 181.4 | 13.72 |  | 
 |  |  |  |  | CC(=O)O[C@H]1C(=O)[C@@]2(C)[C@H]([C@H](OC(=O)c3ccccc3)[C@]3(O)C[C@H](OC(=O)[C@H](O)[C@@H](NC(=O)c4ccccc4)c4ccccc4)C(C)=C1C3(C)C)[C@]1(OC(C)=O)CO[C@@H]1C[C@@H]2O [Paclitaxel, [(1S,2S,3R,4S,7R,9S,10S,12R,15S)-4,12-diacetyloxy-15-[(2R,3S)-3-benzamido-2-hydroxy-3-phenylpropanoyl]oxy-1,9-dihydroxy-10,14,17,17-tetramethyl-11-oxo-6-oxatetracyclo[11.3.1.0^3,10.0^4,7]heptadec-13-en-2-yl] benzoate] |  | > 75 | 26.6 |  |  | 2490 | 9810 |  | 1.81 | 13.9 | 1.97 | ~21 | 17.7
1.96 | 2 | 0.00192 | 0.0019 |  | CC1(C)CCC(CN2CCN(c3ccc(C(=O)NS(=O)(=O)c4ccc(NCC5CCOCC5)c([N+](=O)[O-])c4)c(Oc4cnc5[nH]ccc5c4)c3)CC2)=C(c2ccc(Cl)cc2)C1 [Venetoclax, 4-[4-[[2-(4-chlorophenyl)-4,4-dimethylcyclohexen-1-yl]methyl]piperazin-1-yl]-N-[3-nitro-4-(oxan-4-ylmethylamino)phenyl]sulfonyl-2-(1H-pyrrolo[2,3-b]pyridin-5-yloxy)benzamide] |  |  |  |  |  |  |  |  |  |  |  |  | 
4 | 4 |  | 10 | 10.3 | C=CC(=O)N1CCC([C@@H]2CCNc3c(C(N)=O)c(-c4ccc(Oc5ccccc5)cc4)nn32)CC1 [Zanubrutinib, (7S)-2-(4-phenoxyphenyl)-7-(1-prop-2-enoylpiperidin-4-yl)-4,5,6,7-tetrahydropyrazolo[1,5-a]pyrimidine-3-carboxamide] |  |  |  |  |  |  |  |  |  |  |  |  | 
